Experimental findings from patent publication US20120190566A1, “COMPOSITIONS AND METHODS FOR INHIBITING BIOFILMS” (priority 2009, published 2012) are described below.

One assay concerns the target CsgA (Escherichia coli, UniProt P28307). The conditions noted are these: peptides immobilized on glass slide; recombinant CsgA ~2 μm, about 10% labeled with ALEXA-647; stringent wash.
The target of the next assay is curli (Escherichia coli, UniProt P28307). The assay is described as follows: Inhibition of curli assembly (FIG. 4). Type of assay: biochemical. The conditions noted are these: in the presence of compound. The source says: DAPH-12 (top) blocks tyrosine stacking, while Amphotericin B (bottom) binds to the edge strands and prevents amyloid assembly.
Chain of curli (P28307 21-151): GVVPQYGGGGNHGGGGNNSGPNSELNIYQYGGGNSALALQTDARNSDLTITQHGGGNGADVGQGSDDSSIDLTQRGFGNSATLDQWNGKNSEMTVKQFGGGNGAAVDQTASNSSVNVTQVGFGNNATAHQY

Chain of CsgA (P28307 21-151): as above
Protocol for CsgA: Peptide array synthesis, hybridization and quantification. […] Each peptide spot (250 μM in diameter) is printed with 3 drops of 0.5 nL of peptide solution at a concentration of approximately 2.5 μM using non-contact printing (JPT Peptide Technologies GmbH). The unreacted peptides are removed from the hydrogel slides, dried and then the slides are blocked with 3% BSA in PBST for 1 hr. CsgA proteins are denatured in 6 M GuHCl at 100° C. for approximately 20 minutes, diluted 125 times in PBST containing 3% BSA to a final concentration of 1-5 μM and a label ratio of 5-75%. A single peptide array is incubated with approximately 2-3 mL of diluted CsgA using an ATLAS™ hybridization chamber (BD Biociences) without mixing for a given period of time. The peptide arrays are then washed 5 times with 50 mL of 2% SDS for 30 minutes, 5 times with 50 mL of water, 3 times with 50 mL of methanol and then spun dry. […] The arrays are imaged using a GENEPIX® 4000A scanner and the median values for the peptide spots of two to three replicates are quantified using GENEPIX® Pro 6.0 software (Molecular Devices).
Denatured peptides were arrayed on reactive glass slides and their interaction with soluble, fluorescently labeled CsgA was studied.
A peptide library of CsgB sequences was generated and immobilized on a glass slide essentially as described above. […]

In the case of LRQGGSKLLAVVAQEGSSNRAK [SEQ ID NO: 1], the “nucleation of assembly of soluble, fluorescently labeled CsgA by arrayed peptides” value on CsgA was “nucleate assembly of CsgA”. On to GTQKTAIVVQRQSQMAIRVT [SEQ ID NO: 2], for which, at CsgA, the “nucleation of assembly of soluble, fluorescently labeled CsgA by arrayed peptides” value is “nucleate assembly of CsgA”. Regarding `C[C@@H]1[C@H](O)[C@@H](C)/C=C/C=C/C=C/C=C/C=C/C=C/C=C/[C@H](O[C@@H]2O[C@H](C)[C@@H](O)[C@H](N)[C@@H]2O)C[C@@H]2O[C@](O)(C[C@@H](O)C[C@@H](O)[C@H](O)CC[C@@H](O)C[C@@H](O)CC(=O)O[C@H]1C)C[C@H](O)[C@H]2C(=O)O` [Amphotericin B], the “inhibition of curli assembly” value on curli is on record as “inhibition of curli assembly”. The same measure, in the same setting: with `COc1ccc(Nc2cc3c(cc2Nc2ccc(OC)cc2)C(=O)NC3=O)cc1` [DAPH-12] the entry was “inhibition of curli assembly”.
